From patent US11174268B2, “Benzenesulfonamide compouds and their use as therapeutic agents” (Xenon Pharmaceuticals Inc., priority 2016, dated 2021)
Structures can show the parent of a compound that is named as a salt. Where two headings read alike, the source gives them in different places.

Columns and labels:
NaV1.5 = NaV1.5 (Homo sapiens (Human), UniProt Q14524); assay: Sodium Influx Assay (Flux), NaV1.5
NaV1.6 = NaV1.6 (Homo sapiens (Human), UniProt Q9UQD0); assay: Sodium Influx Assay (Flux), NaV1.6; format: cell-based; details: Trex HEK293 cells, ANG2 dye, inactivated state;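 also: Tetracycline-induced cells, compounds applied for one hour at room temperature with modulators holding channels open, IC50 from percent inhibition of sodium influx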
NaV1.1 = NaV1.1 (Homo sapiens (Human), UniProt P35498); assay: Sodium Influx Assay (Flux), NaV1.1; format: cell-based; details: Trex HEK293 cells, ANG2 dye, inactivated state;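 also: channels co-expressed with human β1 subunit and held open by modulators, cells exposed to compounds for one hour at room temperature, IC50 from percent inhibition of influx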
[1] = read-out: Flux NaV1.5 IC50, Trex HEK293 cells, ANG2 dye, inactivated state

NaV1.5, sequence (Q14524 other isoform, or with tags, fused parts or gaps): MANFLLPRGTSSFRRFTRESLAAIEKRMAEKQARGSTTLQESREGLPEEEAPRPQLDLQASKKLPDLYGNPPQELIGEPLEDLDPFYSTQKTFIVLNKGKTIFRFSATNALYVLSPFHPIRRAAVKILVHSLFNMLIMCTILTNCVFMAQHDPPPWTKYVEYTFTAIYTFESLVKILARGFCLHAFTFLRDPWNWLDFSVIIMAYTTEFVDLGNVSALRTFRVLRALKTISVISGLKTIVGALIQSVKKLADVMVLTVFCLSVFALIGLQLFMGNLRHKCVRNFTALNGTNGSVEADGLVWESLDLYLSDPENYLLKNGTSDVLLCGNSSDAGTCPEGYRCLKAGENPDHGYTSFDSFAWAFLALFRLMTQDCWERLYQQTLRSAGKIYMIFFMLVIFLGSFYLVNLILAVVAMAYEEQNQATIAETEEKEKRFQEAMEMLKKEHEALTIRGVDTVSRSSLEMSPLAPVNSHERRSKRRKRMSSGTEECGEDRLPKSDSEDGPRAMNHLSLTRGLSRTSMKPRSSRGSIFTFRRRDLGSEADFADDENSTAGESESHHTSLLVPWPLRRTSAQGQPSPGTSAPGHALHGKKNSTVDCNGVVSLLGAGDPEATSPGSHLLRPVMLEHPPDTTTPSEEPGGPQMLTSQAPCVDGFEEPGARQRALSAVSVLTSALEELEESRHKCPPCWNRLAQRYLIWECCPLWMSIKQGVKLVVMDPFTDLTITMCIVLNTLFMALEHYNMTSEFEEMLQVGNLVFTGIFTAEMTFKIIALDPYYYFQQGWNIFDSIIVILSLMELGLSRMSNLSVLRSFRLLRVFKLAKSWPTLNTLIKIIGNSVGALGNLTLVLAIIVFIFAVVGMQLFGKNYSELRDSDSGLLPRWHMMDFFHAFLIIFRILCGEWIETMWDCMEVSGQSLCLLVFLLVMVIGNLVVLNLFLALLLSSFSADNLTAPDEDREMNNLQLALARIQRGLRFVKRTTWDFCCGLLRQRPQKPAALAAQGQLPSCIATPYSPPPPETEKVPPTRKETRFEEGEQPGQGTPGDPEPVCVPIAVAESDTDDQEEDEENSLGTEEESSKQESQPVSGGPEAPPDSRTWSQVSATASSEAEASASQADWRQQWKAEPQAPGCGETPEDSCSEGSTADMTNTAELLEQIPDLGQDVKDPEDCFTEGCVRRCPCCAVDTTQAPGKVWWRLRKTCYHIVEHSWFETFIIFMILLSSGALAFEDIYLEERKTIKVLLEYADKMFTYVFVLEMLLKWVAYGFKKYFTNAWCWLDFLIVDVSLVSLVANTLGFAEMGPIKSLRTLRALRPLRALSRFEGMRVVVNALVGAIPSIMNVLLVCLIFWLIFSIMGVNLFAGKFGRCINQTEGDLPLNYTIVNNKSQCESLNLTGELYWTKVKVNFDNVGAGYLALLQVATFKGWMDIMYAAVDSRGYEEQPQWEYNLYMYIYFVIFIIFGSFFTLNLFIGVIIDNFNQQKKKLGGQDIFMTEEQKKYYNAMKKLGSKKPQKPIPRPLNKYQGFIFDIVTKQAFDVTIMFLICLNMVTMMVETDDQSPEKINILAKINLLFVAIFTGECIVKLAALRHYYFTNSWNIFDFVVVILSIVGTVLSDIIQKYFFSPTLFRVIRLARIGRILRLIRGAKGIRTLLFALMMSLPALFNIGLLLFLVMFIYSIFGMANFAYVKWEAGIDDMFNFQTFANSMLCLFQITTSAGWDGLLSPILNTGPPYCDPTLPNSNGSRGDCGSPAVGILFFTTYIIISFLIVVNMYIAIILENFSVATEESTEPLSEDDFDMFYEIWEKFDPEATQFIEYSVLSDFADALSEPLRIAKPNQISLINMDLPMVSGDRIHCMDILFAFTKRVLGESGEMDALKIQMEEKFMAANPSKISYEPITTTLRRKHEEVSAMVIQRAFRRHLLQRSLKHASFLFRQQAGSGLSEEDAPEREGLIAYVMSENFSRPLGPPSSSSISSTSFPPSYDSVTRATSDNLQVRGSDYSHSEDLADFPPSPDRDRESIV

For `C[C@H](Nc1cc(F)c(S(=O)(=O)Nc2cscn2)cc1Cl)c1ccccc1Cl` [Example 92, (S)-5-chloro-4-((1-(2-chlorophenyl)ethyl)amino)-2-fluoro-N-(thiazol-4-yl)benzenesulfonamide], the IC50 (NaV1.5; [1]) was 4.43 µM, the IC50 (NaV1.6) was 2530 nM and the IC50 (NaV1.1) was 7.45 µM.

`O=S(=O)(Nc1nccs1)c1cc(Cl)c(NC2(c3ccccc3F)CC2)cc1F` [Example 220, 5-chloro-2-fluoro-4-((1-(2-fluorophenyl)cyclopropyl)amino)-N-(thiazol-2-yl)benzenesulfonamide] was tested, and the IC50 (NaV1.5; [1]) was 3.17 µM, the IC50 (NaV1.6) was 193 nM and the IC50 (NaV1.1) was 2.12 µM.

Work on `CN1CCN(Cc2cccc(F)c2CNc2cc(F)c(S(=O)(=O)Nc3cscn3)c(F)c2)CC1` [Example 151, 2,6-difluoro-4-((2-fluoro-6-((4-methylpiperazin-1-yl)methyl)-benzyl)amino)-N-(thiazol-4-yl)benzenesulfonamide formate] yielded an IC50 (NaV1.5; [1]) of 30 µM, an IC50 (NaV1.6) of 2100 nM and an IC50 (NaV1.1) of 20.5 µM.

For `O=S(=O)(Nc1ccon1)c1cc(Cl)c(NCc2ccccc2CN2CCC2)cc1F` [Example 258, 4-((2-(azetidin-1-ylmethyl)benzyl)amino)-5-chloro-2-fluoro-N-(isoxazol-3-yl)benzenesulfonamide], the IC50 (NaV1.5; [1]) was 30 µM, the IC50 (NaV1.6) was 3690 nM and the IC50 (NaV1.1) was 30 µM.

Compound `C[C@H](Oc1cc(F)c(S(=O)(=O)Nc2cscn2)cc1Cl)c1cc(Cl)ccc1F` [Example 124, (S)-5-chloro-4-(1-(5-chloro-2-fluorophenyl)ethoxy)-2-fluoro-N-(thiazol-4-yl)benzenesulfonamide] has an IC50 (NaV1.5; [1]) of 1.87 µM, an IC50 (NaV1.6) of 1840 nM and an IC50 (NaV1.1) of 15.9 µM.

Compound `C[C@H](Nc1cc(F)c(S(=O)(=O)Nc2cscn2)cc1Cl)c1cc(OC(F)F)ccc1F` [Example 281, (S)-5-chloro-4-((1-(5-(difluoromethoxy)-2-fluorophenyl)ethyl)amino)-2-fluoro-N-(thiazol-4-yl)benzenesulfonamide] has an IC50 (NaV1.5; [1]) of 11 µM, an IC50 (NaV1.6) of 1080 nM and an IC50 (NaV1.1) of 7.06 µM.

With `CN(Cc1ccccc1CNc1cc(F)c(S(=O)(=O)Nc2cscn2)c(F)c1)C(C)(C)C` [Example 202, 4-((2-((tert-butyl(methyl)amino)methyl)benzyl)amino)-2,6-difluoro-N-(thiazol-4-yl)benzenesulfonamide 2,2,2-trifluoroacetate] the IC50 (NaV1.5; [1]) was 30 µM, the IC50 (NaV1.6) was 534 nM and the IC50 (NaV1.1) was 30 µM.

For `C[C@H](Nc1cc(F)c(S(=O)(=O)Nc2nccs2)cc1Cl)c1cccc2ccccc12` [Example 2, (S)-5-chloro-2-fluoro-4-((1-(naphthalen-1-yl)ethyl)amino)-N-(thiazol-2-yl)benzenesulfonamide], the IC50 (NaV1.5; [1]) was 8.25 µM, the IC50 (NaV1.6) was 5020 nM and the IC50 (NaV1.1) was 16 µM.

`CC(C)C[C@H](Nc1cc(F)c(S(=O)(=O)Nc2nccs2)cc1Cl)c1ccccc1` [Example 109, (S)-5-chloro-2-fluoro-4-((3-methyl-1-phenylbutyl)amino)-N-(thiazol-2-yl)benzenesulfonamide] was tested, and the IC50 (NaV1.5; [1]) was 7.86 µM, the IC50 (NaV1.6) was 214 nM and the IC50 (NaV1.1) was 1.11 µM.

With `Cc1cc(NS(=O)(=O)c2c(F)cc(NCc3c(F)ccc(F)c3CN3CCC3)cc2F)no1` [Example 216, 4-((2-(azetidin-1-ylmethyl)-3,6-difluorobenzyl)amino)-2,6-difluoro-N-(5-methylisoxazol-3-yl)benzenesulfonamide 2,2,2-trifluoroacetate] the IC50 (NaV1.5; [1]) was 30 µM, the IC50 (NaV1.6) was 3120 nM and the IC50 (NaV1.1) was 30 µM.

Compound `CN(Cc1cccc(F)c1CNc1cc(F)c(S(=O)(=O)Nc2cscn2)c(F)c1)CC1(C)COC1` [Example 167, 2,6-difluoro-4-((2-fluoro-6-((methyl((3-methyloxetan-3-yl)methyl)amino)methyl)benzyl)amino)-N-(thiazol-4-yl)benzenesulfonamide formate] has an IC50 (NaV1.5) of at least 30 µM, an IC50 (NaV1.6) of 405 nM and an IC50 (NaV1.1) of at least 30 µM.

With `O=S(=O)(Nc1nccs1)c1cc(Cl)c(N[C@H](CN2CC(F)C2)c2ccccc2)cc1F` [Example 68, (S)-5-chloro-4-((2-(3-fluoroazetidin-1-yl)-1-phenylethyl)amino)-2-fluoro-N-(thiazol-2-yl)benzenesulfonamide 2,2,2-trifluoroacetate] the IC50 (NaV1.5; [1]) was 25.3 µM, the IC50 (NaV1.6) was 1810 nM and the IC50 (NaV1.1) was 5.15 µM.

`O=S(=O)(Nc1ccc(F)cn1)c1c(F)cc(NCc2c(F)cccc2CN2CCC2)cc1F` [Example 296, 4-((2-(azetidin-1-ylmethyl)-6-fluorobenzyl)amino)-2,6-difluoro-N-(5-fluoropyridin-2-yl)benzenesulfonamide formate] gave an IC50 (NaV1.5; [1]) of 30 µM, an IC50 (NaV1.6) of 1310 nM and an IC50 (NaV1.1) of 16.9 µM.

Work on `CCC(Nc1cc(F)c(S(=O)(=O)Nc2nccs2)cc1Cl)c1ccncc1` (stereo not drawn) [Example 60, 5-chloro-2-fluoro-4-((1-(pyridin-4-yl)propyl)amino)-N-(thiazol-2-yl)benzenesulfonamide] yielded an IC50 (NaV1.5; [1]) of 30 µM, an IC50 (NaV1.6) of 3340 nM and an IC50 (NaV1.1) of 1.57 µM.

Work on `CCC(C)(C)N(C)Cc1cccc(F)c1CNc1cc(F)c(S(=O)(=O)Nc2cscn2)c(F)c1` [Example 184, 2,6-difluoro-4-((2-fluoro-6-((methyl(tert-pentyl)amino)methyl)benzyl)amino)-N-(thiazol-4-yl)benzenesulfonamide formate] yielded an IC50 (NaV1.5) of at least 30 µM, an IC50 (NaV1.6) of 332 nM and an IC50 (NaV1.1) of at least 30 µM.

`C[C@H](Nc1cc(F)c(S(=O)(=O)Nc2cscn2)cc1Cl)c1cc(F)cc(F)c1` [Example 223, (S)-5-chloro-4-((1-(3,5-difluorophenyl)ethyl)amino)-2-fluoro-N-(thiazol-4-yl)benzenesulfonamide] showed an IC50 (NaV1.5) of 12.2 µM, an IC50 (NaV1.6) of 4230 nM and an IC50 (NaV1.1) of 3.74 µM.

For `CCN(CC)Cc1cccc(F)c1CNc1cc(F)c(S(=O)(=O)Nc2cscn2)c(F)c1` [Example 183, 4-((2-((diethylamino)methyl)-6-fluorobenzyl)amino)-2,6-difluoro-N-(thiazol-4-yl)benzenesulfonamide formate], the IC50 (NaV1.5; [1]) was 28 µM, the IC50 (NaV1.6) was 36 nM and the IC50 (NaV1.1) was 30 µM.

Compound `CCC(Nc1cc(F)c(S(=O)(=O)Nc2nccs2)cc1Cl)c1cccnc1` (stereo not drawn) [Example 58, 5-chloro-2-fluoro-4-((1-(pyridin-3-yl)propyl)amino)-N-(thiazol-2-yl)benzenesulfonamide] has an IC50 (NaV1.5; [1]) of 7.09 µM, an IC50 (NaV1.6) of 152 nM and an IC50 (NaV1.1) of 2.53 µM.

For `Cc1cc(NS(=O)(=O)c2cc(Cl)c(N[C@@H](C)c3ccccc3Cl)cc2F)ncn1` [Example 244, (S)-5-chloro-4-((1-(2-chlorophenyl)ethyl)amino)-2-fluoro-N-(6-methylpyrimidin-4-yl)benzenesulfonamide], the IC50 (NaV1.5; [1]) was 22.2 µM, the IC50 (NaV1.6) was 4280 nM and the IC50 (NaV1.1) was 30 µM.

In the case of `C[C@H](Nc1cc(F)c(S(=O)(=O)Nc2cscn2)cc1Cl)c1cccc(Cl)c1F` [Example 6, (S)-5-chloro-4-((1-(3-chloro-2-fluorophenyl)ethyl)amino)-2-fluoro-N-(thiazol-4-yl)benzenesulfonamide], the IC50 (NaV1.5; [1]) is reported as 5.52 µM, the IC50 (NaV1.6) is reported as 3380 nM and the IC50 (NaV1.1) is reported as 3.76 µM.

For `O=S(=O)(Nc1ccncn1)c1cc(Cl)c(NC2(c3ccccc3F)CC2)cc1F` [Example 242, 5-chloro-2-fluoro-4-((1-(2-fluorophenyl)cyclopropyl)amino)-N-(pyrimidin-4-yl)benzenesulfonamide], the IC50 (NaV1.5; [1]) was 30 µM, the IC50 (NaV1.6) was 1950 nM and the IC50 (NaV1.1) was 30 µM.

With `C[C@@H](c1cccc(F)c1CNc1cc(F)c(S(=O)(=O)Nc2cscn2)c(F)c1)N1CCC1` [Example 278, (S)-4-((2-(1-(azetidin-1-yl)ethyl)-6-fluorobenzyl)amino)-2,6-difluoro-N-(thiazol-4-yl)benzenesulfonamide formate] the IC50 (NaV1.5; [1]) was 30 µM, the IC50 (NaV1.6) was 187 nM and the IC50 (NaV1.1) was 14.2 µM.

`C[C@H](Nc1cc(F)c(S(=O)(=O)Nc2cscn2)cc1Cl)c1cc(C#N)ccc1F` [Example 229, (S)-5-chloro-4-((1-(5-cyano-2-fluorophenyl)ethyl)amino)-2-fluoro-N-(thiazol-4-yl)benzenesulfonamide] showed an IC50 (NaV1.5; [1]) of 30 µM, an IC50 (NaV1.6) of 961 nM and an IC50 (NaV1.1) of 30 µM.

For `CC(C)(C)NCc1cccc(F)c1CNc1cc(F)c(S(=O)(=O)Nc2cscn2)c(F)c1` [Example 178, 4-((2-((tert-butylamino)methyl)-6-fluorobenzyl)amino)-2,6-difluoro-N-(thiazol-4-yl)benzenesulfonamide formate], the IC50 (NaV1.5; [1]) was 30 µM, the IC50 (NaV1.6) was 265 nM and the IC50 (NaV1.1) was 13.4 µM.

In the case of `O=S(=O)(Nc1cscn1)c1c(F)cc(NCc2c(F)cccc2CN2CC3CC3C2)cc1F` (stereo not drawn) [Example 174, 4-((2-((3-azabicyclo[3.1.0]hexan-3-yl)methyl)-6-fluorobenzyl)amino)-2,6-difluoro-N-(thiazol-4-yl)benzenesulfonamide], the IC50 (NaV1.5; [1]) is reported as 30 µM, the IC50 (NaV1.6) is reported as 35 nM and the IC50 (NaV1.1) is reported as 30 µM.

`O=S(=O)(Nc1cscn1)c1c(F)cc(NCc2c(F)cccc2CN2CCC23COC3)cc1F` [Example 157, 4-((2-((6-oxa-1-azaspiro[3.3]heptan-1-yl)methyl)-6-fluorobenzyl)amino)-2,6-difluoro-N-(thiazol-4-yl)benzenesulfonamide formate] was tested, and the IC50 (NaV1.5; [1]) was 30 µM, the IC50 (NaV1.6) was 2360 nM and the IC50 (NaV1.1) was 30 µM.

Compound `C[C@@H](Oc1ccc(S(=O)(=O)Nc2ncns2)cc1Cl)c1ccccc1` (racemic) [Example 87, (R) and (S)-3-chloro-4-(1-phenylethoxy)-N-(1,2,4-thiadiazol-5-yl)benzenesulfonamide] has an IC50 (NaV1.5) of 24.7 µM, an IC50 (NaV1.6) of 8600 nM and an IC50 (NaV1.1) of at least 30 µM.

With `CC(C)N(C)Cc1cccc(F)c1CNc1cc(F)c(S(=O)(=O)Nc2ccon2)c(F)c1` [Example 201, 2,6-difluoro-4-((2-fluoro-6-((isopropyl(methyl)amino)methyl)benzyl)amino)-N-(isoxazol-3-yl)benzenesulfonamide 2,2,2-trifluoroacetate] the IC50 (NaV1.5; [1]) was 30 µM, the IC50 (NaV1.6) was 561 nM and the IC50 (NaV1.1) was 30 µM.

Work on `O=S(=O)(Nc1cccc(F)n1)c1cc(Cl)c(NCc2ccccc2CN2CCC2)cc1F` [Example 200, 4-((2-(azetidin-1-ylmethyl)benzyl)amino)-5-chloro-2-fluoro-N-(6-fluoropyridin-2-yl)benzenesulfonamide] yielded an IC50 (NaV1.5; [1]) of 15.4 µM, an IC50 (NaV1.6) of 496 nM and an IC50 (NaV1.1) of 4.43 µM.
